Source: patent US12247064B2, “Modified ligand-gated ion channels and methods of use” (Howard Hughes Medical Institute, priority 2017, dated 2025)
Read-outs that look alike come from different tables or passages of the source.

What was measured:
α7GlyR W77F Q79G G175K = biological target: T1, α7GlyR W77F Q79G G175K (Homo sapiens, UniProt P36544, G175K/Q79G/W77F); experiment: Agonist potency at chimeric channel; type: cell-based; conditions: Table 6
T1 construct: expressed in transfected cells

α7GlyR Q79G G175K Y115F = biological target: T2, α7GlyR Q79G G175K Y115F (Homo sapiens, UniProt P36544, G175K/Q79G/Y115F); experiment: Agonist potency at chimeric channel; type: cell-based; conditions: Table 6
T2 construct: expressed in transfected cells

α7-5HT3 = α7-5HT3 (Homo sapiens, UniProt P36544, M226I/T225I)
5HT3-R = biological target: T3, 5HT3-R (Homo sapiens, UniProt P46098); experiment: Agonist potency at 5HT3-R; type: cell-based; conditions: read-out: EC50MP
T3 sequence (P46098 24-478): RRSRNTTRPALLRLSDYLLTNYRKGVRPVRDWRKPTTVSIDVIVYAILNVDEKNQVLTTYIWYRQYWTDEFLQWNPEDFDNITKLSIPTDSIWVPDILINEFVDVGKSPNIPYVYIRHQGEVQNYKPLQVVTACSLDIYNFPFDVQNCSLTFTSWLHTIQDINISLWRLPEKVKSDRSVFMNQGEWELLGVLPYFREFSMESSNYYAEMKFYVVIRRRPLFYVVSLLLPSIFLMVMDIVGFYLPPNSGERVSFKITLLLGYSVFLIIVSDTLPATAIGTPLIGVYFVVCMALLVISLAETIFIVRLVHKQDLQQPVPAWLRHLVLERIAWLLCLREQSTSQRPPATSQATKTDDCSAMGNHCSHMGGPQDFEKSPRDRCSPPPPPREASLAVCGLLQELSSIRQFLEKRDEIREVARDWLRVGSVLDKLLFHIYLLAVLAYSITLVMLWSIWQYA

α4β2 nAChR [1] = biological target: T4, α4β2 nAChR (Homo sapiens, UniProt P17787+P43681); type: cell-based
From the text: FIGS. 14A-14J show ultrapotent chemogenetic agonists (uPSEMs). […] LED: lowest effective dose for mice in SNr rotation assay. Units: nM; parentheses: SEM. Selectivity relative to PSAM^4-GlyR in bold. […] (FIG. 14E) Response amplitude normalized to ACh.

[2] = test system: mice expressing PSAM^4-GlyR unilaterally in SNr; experiment: Unilateral SNr silencing rotation assay; type: in vivo, mouse; conditions: SNr silencing rotation assay in mice
α7-GlyR = α7-GlyR (Homo sapiens, UniProt P36544)
α4β2 nAChR [3] = biological target: T4, α4β2 nAChR; experiment: Agonist potency at α4β2 nAChR
α7^Q79A-5HT3 = biological target: T5, α7^Q79A-5HT3 (Homo sapiens, UniProt P36544, M226I/Q79A/T225I); type: cell-based, human α7 nAChR LBD, murine 5HT3 IPD; conditions: HEK cells; Table 1
T5 construct: expressed in transfected cells; host or cells: HEK cells

α7^Q79G-5HT3 = biological target: T6, α7^Q79G-5HT3 (Homo sapiens, UniProt P36544, M226I/Q79G/T225I); type: cell-based, human α7 nAChR LBD, murine 5HT3 IPD; conditions: HEK cells; Table 1
T6 construct: expressed in transfected cells; host or cells: HEK cells

α7^Q79S-5HT3 = biological target: T7, α7^Q79S-5HT3 (Homo sapiens, UniProt P36544, M226I/Q79S/T225I); type: cell-based, human α7 nAChR LBD, murine 5HT3 IPD; conditions: HEK cells; Table 1
T7 construct: expressed in transfected cells; host or cells: HEK cells

α7^Q79A-GlyR = biological target: T8, α7^Q79A-GlyR (Homo sapiens, UniProt P36544, Q79A); type: cell-based; conditions: HEK cells; Table 2; read-out: Mean EC50 and SEM in parentheses
T8 construct: expressed in transfected cells; host or cells: HEK cells

α7^Q79G-GlyR = biological target: T9, α7^Q79G-GlyR (Homo sapiens, UniProt P36544, Q79G); type: cell-based; conditions: HEK cells; Table 2; read-out: Mean EC50 and SEM in parentheses
T9 construct: expressed in transfected cells; host or cells: HEK cells

α7-GlyR^A298G = biological target: T10, α7-GlyR^A298G (Homo sapiens, UniProt P36544, A298G); type: cell-based; conditions: HEK cells; Table 2; read-out: Mean EC50 and SEM in parentheses
T10 construct: expressed in transfected cells; host or cells: HEK cells

[4] = test system: α7GlyR G175K / A298G mutant chimeric channels; type: cell-based, human; conditions: read-out: Agonist potency
α7^R21D,E41R-5HT3 = biological target: T11, α7^R21D,E41R-5HT3 (Homo sapiens, UniProt P36544, E41R/M226I/R27D/T225I); experiment: Whole cell recordings in HEK cells expressing charge reversal channel; type: cell-based; conditions: V5 epitope tag
T11 construct: expressed in transfected cells; host or cells: HEK cells
T11 sequence (P36544 with tags, fused parts or gaps R27D/E41R/T225I/M226I): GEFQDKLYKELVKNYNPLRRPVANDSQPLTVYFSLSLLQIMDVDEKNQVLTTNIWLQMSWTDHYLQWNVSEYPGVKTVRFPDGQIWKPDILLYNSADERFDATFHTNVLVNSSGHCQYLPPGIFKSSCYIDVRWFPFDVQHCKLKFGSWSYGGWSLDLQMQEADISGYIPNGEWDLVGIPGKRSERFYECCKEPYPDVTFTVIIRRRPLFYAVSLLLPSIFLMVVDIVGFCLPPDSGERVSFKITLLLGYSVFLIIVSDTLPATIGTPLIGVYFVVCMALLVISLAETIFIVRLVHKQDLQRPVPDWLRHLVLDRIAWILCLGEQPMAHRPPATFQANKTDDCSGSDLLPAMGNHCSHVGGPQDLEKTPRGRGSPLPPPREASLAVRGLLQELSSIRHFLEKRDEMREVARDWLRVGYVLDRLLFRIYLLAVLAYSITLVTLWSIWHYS

T4 sequence (P43681 29-627 limits assumed): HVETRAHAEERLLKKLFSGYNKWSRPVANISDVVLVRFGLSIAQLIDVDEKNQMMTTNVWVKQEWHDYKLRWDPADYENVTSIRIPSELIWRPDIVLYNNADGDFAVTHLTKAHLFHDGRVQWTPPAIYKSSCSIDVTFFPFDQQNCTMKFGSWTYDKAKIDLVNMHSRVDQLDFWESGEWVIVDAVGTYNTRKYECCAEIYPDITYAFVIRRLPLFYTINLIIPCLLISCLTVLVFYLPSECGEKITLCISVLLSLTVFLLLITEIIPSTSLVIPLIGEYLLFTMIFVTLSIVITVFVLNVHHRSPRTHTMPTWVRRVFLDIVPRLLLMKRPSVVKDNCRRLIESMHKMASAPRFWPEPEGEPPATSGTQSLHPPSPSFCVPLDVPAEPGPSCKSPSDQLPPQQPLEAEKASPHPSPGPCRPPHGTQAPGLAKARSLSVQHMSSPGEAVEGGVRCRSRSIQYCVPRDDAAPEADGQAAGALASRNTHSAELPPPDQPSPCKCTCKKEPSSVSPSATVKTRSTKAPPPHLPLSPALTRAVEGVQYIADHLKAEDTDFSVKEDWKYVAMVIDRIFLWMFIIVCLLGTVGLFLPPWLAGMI
T4 sequence (P17787 26-502): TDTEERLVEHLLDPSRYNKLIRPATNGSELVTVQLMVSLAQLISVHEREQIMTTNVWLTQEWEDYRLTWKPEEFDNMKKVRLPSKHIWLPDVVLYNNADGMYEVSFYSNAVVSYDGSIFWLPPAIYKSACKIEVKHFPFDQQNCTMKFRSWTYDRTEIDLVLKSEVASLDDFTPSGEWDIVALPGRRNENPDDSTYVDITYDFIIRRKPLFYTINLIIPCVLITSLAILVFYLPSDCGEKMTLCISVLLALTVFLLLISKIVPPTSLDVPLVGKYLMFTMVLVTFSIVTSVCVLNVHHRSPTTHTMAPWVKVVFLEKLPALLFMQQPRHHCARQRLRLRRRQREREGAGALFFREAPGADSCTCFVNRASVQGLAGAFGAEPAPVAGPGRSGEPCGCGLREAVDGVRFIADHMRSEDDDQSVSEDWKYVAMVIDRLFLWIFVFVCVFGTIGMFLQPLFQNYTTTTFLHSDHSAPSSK
Sequence of α7-5HT3 (P36544 with tags, fused parts or gaps T225I/M226I limits assumed): as the sequence (P36544 with tags, fused parts or gaps R27D/E41R/T225I/M226I) above, with D5R, R19E counted along it
Sequence of α7-GlyR (P36544 with tags, fused parts or gaps): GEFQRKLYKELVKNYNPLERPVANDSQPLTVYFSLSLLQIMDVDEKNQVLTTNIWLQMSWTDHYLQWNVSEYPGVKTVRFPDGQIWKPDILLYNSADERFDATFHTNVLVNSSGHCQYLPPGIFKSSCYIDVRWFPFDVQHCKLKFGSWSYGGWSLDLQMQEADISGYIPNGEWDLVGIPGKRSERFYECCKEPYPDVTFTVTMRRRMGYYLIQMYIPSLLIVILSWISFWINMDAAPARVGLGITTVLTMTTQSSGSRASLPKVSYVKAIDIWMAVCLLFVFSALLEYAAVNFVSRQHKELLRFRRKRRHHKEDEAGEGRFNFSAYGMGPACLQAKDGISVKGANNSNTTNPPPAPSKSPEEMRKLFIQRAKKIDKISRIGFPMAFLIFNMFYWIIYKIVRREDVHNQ
T7 sequence (P36544 with tags, fused parts or gaps Q79S/T225I/M226I limits assumed): as the sequence (P36544 with tags, fused parts or gaps R27D/E41R/T225I/M226I) above, with D5R, R19E, Q57S counted along it
T1 sequence (P36544 with tags, fused parts or gaps W77F/Q79G/G175K): as the sequence (P36544 with tags, fused parts or gaps) above, with W55F, Q57G, G153K counted along it
T5 sequence (P36544 with tags, fused parts or gaps Q79A/T225I/M226I limits assumed): as the sequence (P36544 with tags, fused parts or gaps R27D/E41R/T225I/M226I) above, with D5R, R19E, Q57A counted along it
T2 sequence (P36544 with tags, fused parts or gaps Q79G/Y115F/G175K): as the sequence (P36544 with tags, fused parts or gaps) above, with Q57G, Y93F, G153K counted along it
T10 sequence (P36544 with tags, fused parts or gaps, stated change not applied): as the sequence (P36544 with tags, fused parts or gaps) above, with A276G counted along it
T8 sequence (P36544 with tags, fused parts or gaps Q79A): as the sequence (P36544 with tags, fused parts or gaps) above, with Q57A counted along it
T9 sequence (P36544 with tags, fused parts or gaps Q79G): as the sequence (P36544 with tags, fused parts or gaps) above, with Q57G counted along it
T6 sequence (P36544 with tags, fused parts or gaps Q79G/T225I/M226I limits assumed): as the sequence (P36544 with tags, fused parts or gaps R27D/E41R/T225I/M226I) above, with D5R, R19E, Q57G counted along it

**Q.** Which EC50 (α7GlyR W77F Q79G G175K) does the source give for `c1ccc2c(c1)Sc1ccccc1N2CC1CN2CCC1CC2` (stereo not shown) [Mequitazine, reference compound] here?
**A.** The EC50 was 150 nM.

**Q.** What about the EC50 (α7GlyR Q79G G175K Y115F) of the same molecule?
**A.** The EC50 was > 10000 nM.

**Q.** And the EC50 (α7-5HT3; read-out: Potency, Table 6)?
**A.** Its EC50 is > 30000 nM.

**Q.** Which results are given for `CCCOc1cnc2cc3c(cc2n1)C1CNCC3C1` (stereo not shown) [compound 817]?
**A.** EC50 (5HT3-R): 1500 ± 1000 nM; effect on α4β2 nAChR (α4β2 nAChR [1]): inhibits; In vivo potency [2]: 0.1 mpk; EC50 (α7-GlyR): > 100000 nM; α4β2 nAChR agonism (α4β2 nAChR [3]): do not show evident α4β2 nAChR agonism; EC50 (α4β2 nAChR [3]; read-out: EC50MP): > 30000 nM; EC50 (α7-5HT3; read-out: EC50MP): > 100000 nM

**Q.** What does the source list for `Cn1cc(C(=O)C(=O)NC2CN3CCC2CC3)c2ccccc21` (stereo not shown) [RS56812]?
**A.** EC50 (α7^Q79A-5HT3): 6800 nM; EC50 (α7^Q79G-5HT3): 1400 nM; EC50 (α7^Q79S-5HT3): 5700 nM; EC50 (α7^Q79A-GlyR): 3500 nM; EC50 (α7^Q79G-GlyR): 2000 nM; EC50 (α7-GlyR^A298G): 2300 nM; EC50 (α7-GlyR): 6500 nM; EC50 (α7-5HT3; read-out: Mean EC50, HEK cells, Table 1): 10000 nM

**Q.** How did the EC50 ([4]; α7GlyR Q79G A298G G175K Y115F) turn out when `O=C(NC1CN2CCC1CC2)c1ccc(Cl)cc1` (stereo not shown) [PNU-282987] was run?
**A.** The EC50 was 9 nM.

**Q.** And the EC50 ([4]; α7GlyR Q79G A298G P216I)?
**A.** Its EC50 is 250 nM.

**Q.** And the EC50 ([4]; α7GlyR Q79G A298G Y115F K395 K396A)?
**A.** Its EC50 is 110 nM.

**Q.** What about the EC50 ([4]; α7GlyR Q79G G175K A298G) of the same molecule?
**A.** The EC50 was 0.36 nM.

**Q.** And the EC50 ([4]; α7GlyR Q79G W77F A298G)?
**A.** The EC50 was 1630 nM.

**Q.** And the EC50 ([4]; α7GlyR R27D E41R Q79G Y115F)?
**A.** Its EC50 is 340 nM.

**Q.** What about the whole cell responses (α7^R21D,E41R-5HT3) of the same molecule?
**A.** The whole cell responses was “potent responses”.
